Source: publication PMC5127189 (Scientific Reports, 2016)

How the values were obtained:
[1] = system: HTG21 (DNA, G4) GGGTTAGGGTTAGGGTTAGGG; assay: fluorescent intercalator displacement (FID); set-up: unit not given here; details: thiazole orange displaced
[2] = system: c-kit-2 (DNA, G4) CGGGCGGGCGCTAGGGAGGGT; assay: fluorescent intercalator displacement (FID); set-up: unit not given here; details: thiazole orange displaced
[3] = system: ds26 (DNA, duplex) CAATCGGATCGAATTCGATCCGATTG; assay: fluorescent intercalator displacement (FID); set-up: unit not given here; details: thiazole orange displaced
[4] = system: Pu27 (DNA, G4) TGGGGAGGGTGGGGAGGGTGGGGAAGG; assay: fluorescent intercalator displacement (FID); details: K+ 100 mM (TBS); 10 mM Tris, pH 7.35 (TBS as defined in Table 4); thiazole orange displaced
[5] = system: c-kit-1 (DNA, G4) CGGGCGGGCACGAGGGAGGGT; assay: fluorescent intercalator displacement (FID); details: K+ 100 mM (TBS); 10 mM Tris, pH 7.35 (TBS as defined in Table 4); thiazole orange displaced
[6] = system: Pu22 (DNA, G4) TGAGGGTGGGTAGGGTGGGTAA; assay: fluorescent intercalator displacement (FID); details: K+ 100 mM (TBS); 10 mM Tris, pH 7.35 (TBS as defined in Table 4); thiazole orange displaced
[7] = system: Pu27 (DNA, G4) TGGGGAGGGTGGGGAGGGTGGGGAAGG; assay: fluorescent intercalator displacement (FID); set-up: unit not given here; details: thiazole orange displaced
[8] = system: c-kit-1 (DNA, G4) CGGGCGGGCACGAGGGAGGGT; assay: fluorescent intercalator displacement (FID); set-up: unit not given here; details: thiazole orange displaced
[9] = system: Pu22 (DNA, G4) TGAGGGTGGGTAGGGTGGGTAA; assay: fluorescent intercalator displacement (FID); set-up: unit not given here; details: thiazole orange displaced
[10] = system: HTG21 (DNA, G4) GGGTTAGGGTTAGGGTTAGGG; assay: fluorescent intercalator displacement (FID); details: K+ 100 mM (TBS); 10 mM Tris, pH 7.35 (TBS as defined in Table 4); thiazole orange displaced
[11] = system: ds26 (DNA, duplex) CAATCGGATCGAATTCGATCCGATTG; assay: fluorescent intercalator displacement (FID); details: K+ 100 mM (TBS); 10 mM Tris, pH 7.35 (TBS as defined in Table 4); thiazole orange displaced
[12] = system: Hep-G2 cells; details: Hep-G2, 48 h; for Inhibitory rates (%): footnote a: 20 μM, footnotes b, c (salts, cisplatin) cut off
Experimental: (§1) The cytotoxic activity of the L^a–L^d and complexes 1–14 were tested against a panel of cell lines such as Hep-G2, NCI-H460, SK-OV-3, HCT-8, BEL-7402 cells, and one normal cell line, HL-7702, and cell viability was determined using the MTT assay. Cisplatin was used as the positive control.

[13] = system: BEL-7402 cells; assay: MTT cytotoxicity assay; assay type: cell-based, human; details: BEL-7402, 48 h; for Inhibitory rates (%): footnote a: 20 μM, footnotes b, c (salts, cisplatin) cut off
Experimental: as §1

[14] = system: HCT-8 cells; assay: MTT cytotoxicity assay; assay type: cell-based, human; details: HCT-8, 48 h; for Inhibitory rates (%): footnote a: 20 μM, footnotes b, c (salts, cisplatin) cut off
Experimental: as §1

[15] = system: NCI-H460 cells; assay: MTT cytotoxicity assay; assay type: cell-based, human; details: NCI-H460, 48 h; for Inhibitory rates (%): footnote a: 20 μM, footnotes b, c (salts, cisplatin) cut off
Experimental: as §1

[16] = system: SK-OV-3 cells; assay: MTT cytotoxicity assay; assay type: cell-based, human; details: SK-OV-3, 48 h; for Inhibitory rates (%): footnote a: 20 μM, footnotes b, c (salts, cisplatin) cut off
Experimental: as §1

[17] = system: HL-7702 cells; assay: MTT cytotoxicity assay, normal cell line; assay type: cell-based, human; details: HL-7702, 48 h; for Inhibitory rates (%): footnote a: 20 μM, footnotes b, c (salts, cisplatin) cut off
Experimental: as §1

[18] = system: Hep-G2 cells; assay: Cellular uptake of metal by ICP-MS; assay type: cell-based, human; details: Hep-G2, 24 h; 3 5 μM, 6 14 μM, 7 16 μM, 8 10 μM, 10 12 μM, 11 6 μM, cisplatin 10 μM
Experimental: In order to understand the uptake and distribution of cisplatin, complexes 1–6, 7, 8, 10 and 11 in Hep-G2 cells, an ICP-MS assay was performed to quantify the amount of metal (Pt, Ni or Pd) taken up by the cells.

[19] = system: Hep-G2 cells; assay: Distribution of metal in nuclear and mitochondrial fractions (ICP-MS); assay type: cell-based, human; details: Hep-G2, 24 h
Experimental: The distributions of metal (cisplatin, complexes 1–6, 7, 8, 10 and 11) in the nuclear fraction and mitochondrial fractions of Hep-G2 cells were studied after exposure of Hep-G2 cells to 1–6, 7, 8, 10, 11 and cisplatin for 24 h according to our previous reports. […] Taken together, their difference of metal (Pt, Ni or Pd) distribution for complexes 1–6, 7, 8, 10, 11 and cisplatin could be attributed to their differences in cytotoxicity and the apoptotic pathways in Hep-G2 cells.

[20] = system: human hepatoma (BEL-7402) xenograft; assay: In vivo antitumor activity, BEL-7402 xenograft model; set-up: species or system nude mice; details: cisplatin, 2 mg/kg/2days ip; for Tumor Volume (end): day 18, 2 mg/kg
Experimental: Animal used, acute toxicity studies and antitumor activity toward BEL-7402 in vivo of complex 3 (16 and 8 mg/kg, two time a day,17 days (ip)), complex 6 (3.2 and 1.6 mg/kg/ day, 17 days) and cisplatin (2 mg/kg/2days), were similar to that reported by Chen[43][80]. BEL-7402 xenograft mouse models were purchased from Beijing HFK Bioscience Co., Ltd (Beijing, China, approval No. SCXK 2014-004). The animal procedures were approved by the Institute of Radiation Medicine Chinese Academy of Medical Sciences (Tian Jin, China, approval No. SYXK 2014-0002). And all of the experimental procedures were carried out in accordance with the NIH Guidelines for the Care and Use of Laboratory Animals. Animal experiments were approved by the Animal Care and Use Committee of Institute of Radiation Medicine Chinese Academy of Medical Sciences.

[21] = Body weight in the BEL-7402 xenograft study
Experimental: To investigate the efficacy of 3 to inhibit tumor growth in vivo, a mouse model of human hepatoma (BEL-7402) xenograft was used. The tumor-bearing nude mice received treatment when the tumor size was between 100 and 160 mm^3. The mice were treated with 3 at 16 and 8 mg/kg two times every day, and treatment of cisplatin with 2 mg/kg/2days as the positive control.
(1 picture or pasted object on this page, not shown here)

HTG21DC50 [1] | c-kit-2DC50 [2] | ds26DC50 [3] | Pu27DC50 [7] | c-kit-1DC50 [8] | Pu22DC50 [9] | Compound | Inhibitory rates (%) [12] [%] | Inhibitory rates (%) [13] [%] | Inhibitory rates (%) [14] | Inhibitory rates (%) [15] | Inhibitory rates (%) [16] [%] | Inhibitory rates (%) [17] | other results
55.16 | 79.69 | 91.48 | – | – | – | COC1c2c([c-]ccc2Cl)-c2nccc3cccc1c23.CS(C)=O.[Cl-].[Pt+2] (stereo not shown) | – | – | – | – | – | – | Pu27DC50 [4]: 33.15; c-kit-1DC50 [5]: 79.95; Pu22DC50 [6]: 74.91
70.83 | 87.29 | 96.11 | 60.02 | 90.02 | 99.81 | CS(C)=O.O=C1c2c([c-]ccc2Cl)-c2nccc3cccc1c23.[Cl-].[Pt+2] | – | – | – | – | – | – | –
3.35 | 3.61 | 37.01 | 1.31 | 9.11 | 7.63 | Nc1ccc2ccnc3c2c1C(=O)c1ccccc1-3.[Cl-].[Cl-].[Ni+2] | – | – | – | – | – | – | –
3.91 | 5.01 | 21.76 | 3.88 | 18.75 | 9.09 | Nc1ccc2ccnc3c2c1C(=O)c1ccccc1-3.[Cl-].[Cl-].[Pd+2] | – | – | – | – | – | – | –
– | 45.30 | – | 14.22 | 73.65 | 90.18 | Nc1cccc2c1C(=O)c1cccc3ccnc-2c13.[Cl-].[Cl-].[Ni+2] | – | – | – | – | – | – | HTG21DC50 [10]: 26.45; ds26DC50 [11]: 70.46
49.08 | > 100 | 90.63 | 42.51 | 78.46 | 89.64 | Nc1cccc2c1C(=O)c1cccc3ccnc-2c13.[Cl-].[Cl-].[Pd+2] | – | – | – | – | – | – | –
– | – | – | – | – | – | N.N.[Cl][Pt][Cl] [Cisplatin, cisplatin, reference compound] | 68.71 ± 0.56 | 65.82 ± 1.11 | 56.07 ± 1.67% | 59.13 ± 1.35% | 58.06 ± 1.03 | 63.09 ± 1.35% | IC50 [12]: 9.65 ± 0.87 µM; IC50 [13]: 12.7 ± 0.94 µM; IC50 [14]: 16.3 ± 1.54 µM; IC50 [15]: 18.1 ± 1.26 µM; IC50 [16]: 14.1 ± 1.07 µM; IC50 [17]: 12.3 ± 1.19 µM; cellular accumulation of metal (Pt) [18]: 4.89 ± 0.43 nmol platinum/10^6 cells; distribution of metal in nuclear and mitochondrial fractions [19]: mainly accumulated in the mitochondrial fraction; Tumor Volume (start) [20]: 104.79 ± 32.12 mm^3; average tumor weight (mean ± SD g) [20]: 0.52 ± 0.29 g; Tumor Volume (end) [20]: 566.82 ± 331.08 mm^3; Tumor Volume (end) ([20]; listed as cisplatin): 566 mm^3; inhibition of tumor growth (%) / Inhibition Ratio ([20]; tumor weight): 75.9%; body weight loss during treatment (in words) ([21]; BEL-7402 xenograft mice): severe body weight loss; Body Weight (end) ([21]; cisplatin, 2 mg/kg/2days ip): 19.6 ± 0.9 g; Body Weight (start) ([21]; cisplatin, 2 mg/kg/2days ip): 22.5 ± 1.1 g; RBW (%) (end) ([21]; cisplatin, 2 mg/kg/2days ip): 87.11 ± 4.8%
– | – | – | – | – | – | O.O.O.O.O.O.[Cl][Ni][Cl] [NiCl2·6H2O, reference compound] | 15.06 ± 1.09 | 11.28 ± 1.08 | 12.75 ± 1.09% | 10.44 ± 1.82% | 20.88 ± 0.61 | 17.03 ± 1.16% | –
– | – | – | – | – | – | [Cl][Pd][Cl] [PdCl2, reference compound] | 20.14 ± 1.18 | 18.59 ± 1.77 | 15.05 ± 1.84% | 9.91 ± 1.49% | 19.02 ± 1.04 | 18.24 ± 1.33% | –
– | – | – | – | – | – | O=C1c2c(Cl)cc[c]3c2-c2c4c1cccc4cc[n+]2[Pt-2]31[NH2+]CCC[NH2+]1.[Cl-] (stereo not shown) [compound 9, [Pt(L^c)(pn)]Cl] | 58.11 ± 2.05 | 40.64 ± 0.85 | 40.89 ± 1.79% | 47.28 ± 1.07% | 36.74 ± 1.21 | 39.56 ± 1.01% | IC50 [12]: 15.9 ± 2.11 µM; IC50 [13]: 45 ± 0.86 µM; IC50 [14]: 25.2 ± 1.82 µM; IC50 [15]: 25.1 ± 1.09 µM; IC50 [16]: 30.4 ± 1.19 µM; IC50 [17]: 80 ± 1.02 µM
– | – | – | – | – | – | NCCN [en, 1,2-ethylenediamine, reference compound] | 13.64 ± 2.03 | – | 16.45 ± 1.92% | 20.58 ± 1.66% | 18.42 ± 0.98 | 15.03 ± 0.65% | –
– | – | – | – | – | – | cis-Pt(DMSO)2Cl2 [reference compound] | 17.83 ± 0.57 | 10.74 ± 0.95 | no activity | no activity | 15.11 ± 1.17 | no activity | –
